Experimental data reported in publication PMC9502272, “A Metabolomics Approach for Predicting OATP1B-Type Transporter-Mediated Drug–Drug Interaction Liabilities” (Pharmaceutics, 2022).
Structures can show the parent of a compound that is named as a salt. Where two headings read alike, the source gives them in different places.

Key:
OATP1B [1] = conditions: patients, paclitaxel (Taxol) 1 h i.v. infusion, 50 or 100 mg/m^2; dose-dependent
Method: An Accucore aQ column (50 × 2.1 mm, dp = 2.6 μm; Thermo Fisher Scientific) was protected by a C18 AQUASIL guard cartridge (2.1 mm × 10 mm, dp = 3 μm; Thermo Fisher Scientific). The injection volume of sample was 5.0 μL. The temperature of the autosampler rack was 4 °C, and the temperature of the column was maintained at 20 °C. The mobile phase was composed of solvent A (2 mmol ammonium acetate in water) and solvent B (100% methanol), and the total run time was 4.6 min. The gradient conditions were as follows: 0–0.5 min, 45% B; 0.5–2.0 min, 45 to 90%, 2.0–4.0 min, 90% B; 4.0–4.6 min, 45% B, delivered at a flow rate of 0.4 mL/min. The MS assay setting with the positive voltage applied to the ESI capillary was set at 3791 V, and the capillary temperatures was 335 °C with a vaporizer temperature of 350 °C. Argon was used as the collision gas at a pressure of 1.5 mTorr. […] The lower limit of quantitation (LLOQ) for both analytes was determined to be 0.5 ng/mL. […]
(§1) Pharmacokinetic parameters were derived from non-compartmental analysis using Phoenix WinNonlin version 8.0 (Certara, Princeton, NJ, USA). The peak plasma concentration (Cmax) was determined by visual inspection of the data from the concentration–time curves. […]

[2] = target: T1, OATP1B-type transporters (Oatp1b2) (Mus musculus, UniProt Q9JJL3); test: Murine pharmacokinetic study: influence of OATP1B inhibitors on plasma CDCA-24G in wild-type mice; format: in vivo; conditions: rifampin 20 mg/kg i.v. or paclitaxel 10 mg/kg i.v.
T1 construct: was performed in wild-type mice and Oatp1b2(−/−) mice; from tissue; host or cells: living wild-type mice (DBA/1LacJ or FVB background); hepatic transporter in vivo
T1 sequence (Q9JJL3 1-689): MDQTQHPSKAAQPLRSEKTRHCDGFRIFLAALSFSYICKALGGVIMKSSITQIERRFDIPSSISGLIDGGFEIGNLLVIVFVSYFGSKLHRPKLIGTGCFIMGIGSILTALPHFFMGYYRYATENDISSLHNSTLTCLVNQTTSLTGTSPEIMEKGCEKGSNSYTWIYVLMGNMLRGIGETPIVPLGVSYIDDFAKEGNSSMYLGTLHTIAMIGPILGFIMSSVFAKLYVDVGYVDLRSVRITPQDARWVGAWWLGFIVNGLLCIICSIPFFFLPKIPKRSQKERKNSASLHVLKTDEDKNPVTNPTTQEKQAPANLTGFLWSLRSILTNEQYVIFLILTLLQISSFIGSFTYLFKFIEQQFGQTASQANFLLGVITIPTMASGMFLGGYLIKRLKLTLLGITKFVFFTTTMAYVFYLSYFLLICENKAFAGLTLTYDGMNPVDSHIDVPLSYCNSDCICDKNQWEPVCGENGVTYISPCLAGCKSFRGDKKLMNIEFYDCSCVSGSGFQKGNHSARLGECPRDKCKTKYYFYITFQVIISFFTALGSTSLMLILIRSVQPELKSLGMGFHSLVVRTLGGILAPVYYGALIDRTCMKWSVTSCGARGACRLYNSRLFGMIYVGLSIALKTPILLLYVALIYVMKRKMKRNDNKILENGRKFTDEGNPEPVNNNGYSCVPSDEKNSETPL
Method: In these experiments, serial whole blood samples were collected in heparinized tubes immediately prior to drug administration (pre-dose) and at 0.25, 0.5, 1, 2, and 4 h after administration from the submandibular vein for the initial three time-points, from the retro-orbital sinus vein for the subsequent two time-points, and by cardiac puncture at the terminal time-point. Whole blood samples were centrifuged at 11,000 rpm for 5 min; then, the plasma supernatants were collected and stored at −80 °C until analysis by a validated method based on LC-MS/MS.
An Accucore aQ column (50 × 2.1 mm, dp = 2.6 μm; Thermo Fisher Scientific) was protected by a C18 AQUASIL guard cartridge (2.1 mm × 10 mm, dp = 3 μm; Thermo Fisher Scientific). The injection volume of sample was 5.0 μL. The temperature of the autosampler rack was 4 °C, and the temperature of the column was maintained at 20 °C. The mobile phase was composed of solvent A (2 mmol ammonium acetate in water) and solvent B (100% methanol), and the total run time was 4.6 min. […]
as §1

[3] = set-up: method as in ref PMIDs of Table S2 (18321482, 35456528, 28612269, 10997930, 27796539, 23299792, 11129729, 22808947, 12844327); conditions: ref PMIDs of Table S2 (18321482, 35456528, 28612269, 10997930, 27796539, 23299792, 11129729, 22808947, 12844327); cited from earlier work
OATP1B3 = system: OATP1B3; set-up: method as in ref PMIDs of Table S2 (18321482, 35456528, 28612269, 10997930, 11129729, 22808947, 12844327); conditions: ref PMIDs of Table S2 (18321482, 35456528, 28612269, 10997930, 11129729, 22808947, 12844327); cited from earlier work
Oatp1a/1b = test: Baseline plasma biomarker levels in Oatp1a/1b(−/−) cluster-knockout vs wild-type mice; format: in vivo, mouse
Method: Plasma concentrations of levels of CDCA-24G and glycochenodeoxycholate-3-sulfate (GCDCA-S) were determined using LC-MS/MS using a Vanquish UHPLC coupled with a Quantiva triple quadrupole mass spectrometer (Thermo Fisher Scientific, Waltham, MA, USA). An Accucore aQ column (50 × 2.1 mm, dp = 2.6 μm; Thermo Fisher Scientific) was protected by a C18 AQUASIL guard cartridge (2.1 mm × 10 mm, dp = 3 μm; Thermo Fisher Scientific). The injection volume of sample was 5.0 μL. The temperature of the autosampler rack was 4 °C, and the temperature of the column was maintained at 20 °C. The mobile phase was composed of solvent A (2 mmol ammonium acetate in water) and solvent B (100% methanol), and the total run time was 4.6 min. The gradient conditions were as follows: 0–0.5 min, 45% B; 0.5–2.0 min, 45 to 90%, 2.0–4.0 min, 90% B; 4.0–4.6 min, 45% B, delivered at a flow rate of 0.4 mL/min. The MS assay setting with the positive voltage applied to the ESI capillary was set at 3791 V, and the capillary temperatures was 335 °C with a vaporizer temperature of 350 °C. Argon was used as the collision gas at a pressure of 1.5 mTorr. Precursor molecular ions, and product ions were recorded for the confirmation and detection of GCDCA-S (528.4 > 448.3) and CDCA-24G (567.4 > 391.1), using [^2H5]-GCDCA-S (535.5 > 453.3) and [^2H5]-CDCA-24G (572.5 > 396.1) as respective internal standards. The lower limit of quantitation (LLOQ) for both analytes was determined to be 0.5 ng/mL. […]
Plasma concentrations of coproporphyrin I (CP-I) and III (CP-III) were determined similarly by LC-MS/MS. […] Precursor molecular ions and product ions were recorded for confirmation and detection of CP-I (655.4 > 596.4) and CP-III (655.4 > 596.3), using [^2H4]-CP-III (659.4 > 600.3) as the internal standard for both analytes. The LLOQ for both analytes were determined to be 1 ng/mL, and the within-run and between-run precisions as well as the accuracy were always within acceptable limits.

OATP1B1 = target: T2, OATP1B1 (Homo sapiens, UniProt Q9Y6L6); set-up: method as in ref PMIDs of Table S2 (18321482, 35456528, 28612269, 10997930, 11129729, 22808947, 12844327); conditions: ref PMIDs of Table S2 (18321482, 35456528, 28612269, 10997930, 11129729, 22808947, 12844327); cited from earlier work
T2 construct: expressed in transfected cells; host or cells: HEK293 (ATCC)
T2 sequence (Q9Y6L6 1-691): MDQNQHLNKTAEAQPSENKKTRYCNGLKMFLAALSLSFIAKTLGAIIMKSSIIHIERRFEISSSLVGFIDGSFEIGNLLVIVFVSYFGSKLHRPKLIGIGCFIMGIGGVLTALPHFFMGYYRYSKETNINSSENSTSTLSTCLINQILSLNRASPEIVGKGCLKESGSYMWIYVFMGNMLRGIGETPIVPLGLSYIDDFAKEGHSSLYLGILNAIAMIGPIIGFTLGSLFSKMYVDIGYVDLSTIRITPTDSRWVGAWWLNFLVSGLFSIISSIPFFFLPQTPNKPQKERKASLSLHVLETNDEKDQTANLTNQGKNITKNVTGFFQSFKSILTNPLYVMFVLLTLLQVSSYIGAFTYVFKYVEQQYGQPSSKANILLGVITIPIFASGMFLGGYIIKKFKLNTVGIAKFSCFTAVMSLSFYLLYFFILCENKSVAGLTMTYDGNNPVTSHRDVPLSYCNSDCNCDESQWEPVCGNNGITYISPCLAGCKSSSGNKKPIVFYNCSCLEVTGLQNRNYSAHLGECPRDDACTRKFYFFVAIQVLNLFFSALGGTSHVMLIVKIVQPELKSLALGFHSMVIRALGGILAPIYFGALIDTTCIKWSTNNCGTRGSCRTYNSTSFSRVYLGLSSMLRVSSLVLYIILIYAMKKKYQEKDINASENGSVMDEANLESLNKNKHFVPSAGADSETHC

Oatp1b2 [4] = target: T3, Oatp1b2 (Mus musculus, UniProt Q9JJL3); conditions: in vivo
T3 sequence (Q9JJL3 1-689): T1 sequence (Q9JJL3 1-689)

OATP1B [5] = test: Clinical study: OATP1B biomarkers in patients receiving cabazitaxel; format: in vivo, human; conditions: cabazitaxel 1 h i.v. infusion up to 25 mg/m^2
From the text: Samples from patients with solid tumors were collected from 3 clinical studies conducted in accordance with the principles of the Declaration of Helsinki, and all study protocols were approved by Institutional Review Boards at either the National Cancer Institute (Bethesda, MD, USA) or the Erasmus Medical Center Cancer Institute (Rotterdam, The Netherlands). All patients provided written informed consent for their blood samples and medical information to be used for research purposes.
An Accucore aQ column (50 × 2.1 mm, dp = 2.6 μm; Thermo Fisher Scientific) was protected by a C18 AQUASIL guard cartridge (2.1 mm × 10 mm, dp = 3 μm; Thermo Fisher Scientific). The injection volume of sample was 5.0 μL. The temperature of the autosampler rack was 4 °C, and the temperature of the column was maintained at 20 °C. The mobile phase was composed of solvent A (2 mmol ammonium acetate in water) and solvent B (100% methanol), and the total run time was 4.6 min. The gradient conditions were as follows: 0–0.5 min, 45% B; 0.5–2.0 min, 45 to 90%, 2.0–4.0 min, 90% B; 4.0–4.6 min, 45% B, delivered at a flow rate of 0.4 mL/min. The MS assay setting with the positive voltage applied to the ESI capillary was set at 3791 V, and the capillary temperatures was 335 °C with a vaporizer temperature of 350 °C. […] The lower limit of quantitation (LLOQ) for both analytes was determined to be 0.5 ng/mL. […]

Oatp1b2 [6] = target: T3, Oatp1b2; test: Untargeted metabolomics of plasma from untreated wild-type and Oatp1b2(−/−) mice; conditions: for Fold of Change KO/WT: plasma of untreated Oatp1b2-deficient (KO) vs wild-type (WT) mice, semi-quantitative, positive = higher in KO, n = 6 per group; for Mean value KO: plasma of untreated Oatp1b2-deficient mice; for Mean value KO / Mean value WT: raw area counts rescaled to median = 1; for Mean value WT: plasma of untreated wild-type mice

Compound	Cmax [3] [µM]	Fold of Change KO/WT (Oatp1b2 [6])	Mean value KO (Oatp1b2 [6])	Mean value WT (Oatp1b2 [6])	other results
CC(=O)O[C@H]1C(=O)[C@@]2(C)[C@H]([C@H](OC(=O)c3ccccc3)[C@]3(O)C[C@H](OC(=O)[C@H](O)[C@@H](NC(=O)c4ccccc4)c4ccccc4)C(C)=C1C3(C)C)[C@]1(OC(C)=O)CO[C@@H]1C[C@@H]2O [Paclitaxel, paclitaxel]	9.6				Effect on plasma levels of CDCA-24G (OATP1B [1]): elevated; Effect on circulating levels of CDCA-24G [2]: transient, statistically significant increase; IC50 (OATP1B3): 500 nM
coproporphyrin III [CP-III]					Observed changes in plasma levels in Oatp1a/1b(−/−), OATP1B1(tg) or OATP1B3(tg) mice vs wild type, compared with CDCA-24G (Oatp1a/1b): much more modest
CO[C@H]1/C=C/O[C@@]2(C)Oc3c(C)c(O)c4c(O)c(c(/C=N/N5CCN(C)CC5)c(O)c4c3C2=O)NC(=O)/C(C)=C\C=C\[C@H](C)[C@H](O)[C@@H](C)[C@@H](O)[C@@H](C)[C@H](OC(C)=O)[C@@H]1C [Rifampin, rifampin]	29				Effect on circulating levels of CDCA-24G [2]: transient, statistically significant increase; IC50 (OATP1B3): 2600 nM; IC50 (OATP1B1): 1500 nM
C[N+](C)(C)[C@@H](Cc1cnc[nH]1)C(=O)[O-] [histidine betaine (hercynine)]					Fold of Change KO/WT (Oatp1b2 [4]): 1.31; Mean value KO (Oatp1b2 [4]): 1.09; Mean value WT (Oatp1b2 [4]): .830
CO[C@H]1C(=O)[C@]2(C)[C@@H](OC)C[C@H]3OC[C@@]3(OC(C)=O)[C@H]2[C@H](OC(=O)c2ccccc2)[C@]2(O)C[C@H](OC(=O)[C@H](O)[C@@H](NC(=O)OC(C)(C)C)c3ccccc3)C(C)=C1C2(C)C [Cabazitaxel, cabazitaxel]	0.193				Effect on plasma levels of CDCA-24G (OATP1B [5]): not associated with elevated plasma levels; Effect on plasma levels of GCDCA-S (OATP1B [5]): not associated with elevated plasma levels
coproporphyrin I [CP-I]					Observed changes in plasma levels in Oatp1a/1b(−/−), OATP1B1(tg) or OATP1B3(tg) mice vs wild type, compared with CDCA-24G (Oatp1a/1b): much more modest
CCCCC/C=C\C/C=C\C/C=C\C/C=C\CCCC(=O)OC[C@@H](O)COP(=O)([O-])OCC[N+](C)(C)C [1-arachidonoyl-GPC (20:4n6)]		1.63	1.27	.775	
O=S(=O)(O)Oc1ccc(O)cc1 [hydroquinone sulfate]		1.55	1.32	.849	
CCCCCCCCCCCCCC/C=C\OC[C@@H](O)COP(=O)(O)OCCN [1-(1-enyl-palmitoyl)-GPE (P-16:0)]		1.79	1.30	.725	
NCCOP(=O)(O)OCC(O)CO (stereo not shown) [glycerophosphoethanolamine]		1.57	1.31	.831	
